Here are results for 1 cell line from the supplement of paper PMC10307832.

What all share (assay): relative viability (nuclei count vs DMSO), 5 days (fraction); higher = more cells survive
Compound in the experiment “XMD14-99 + Luminespib”: CN1CCN(CC1)C2=CC(=C(C=C2)NC3=NC(=C(S3)C(=O)C4=C(C=CC=C4Cl)Cl)N)OC [XMD14-99] + CCNC(=O)c1noc(-c2cc(C(C)C)c(O)cc2O)c1-c1ccc(CN2CCOCC2)cc1 [Luminespib] (partner 0.01 µM)
Summed up:
(§1)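 Lung cancer cell lines in 1536-well plates got either a single drug or a fixed anchor-drug dose together with five library-drug doses (not always all listed) in √10 steps, by pin tool, on the day after seeding. Nuclei were counted after 5 days, and relative viability is the treated-to-vehicle ratio of nuclei counts. Values are medians of duplicate plates.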

Compound in the experiment “AZD1208 + Phenformin”: N[C@@H]1CCCN(c2c(/C=C3\SC(=O)NC3=O)cccc2-c2ccccc2)C1 [AZD1208] + N=C(N)NC(=N)NCCc1ccccc1 [Phenformin] (partner 250 µM)
The method in brief: as §1

Compound in the experiment “AZD1208 + Olaparib”: N[C@@H]1CCCN(c2c(/C=C3\SC(=O)NC3=O)cccc2-c2ccccc2)C1 [AZD1208] + O=C(c1cc(Cc2n[nH]c(=O)c3ccccc23)ccc1F)N1CCN(C(=O)C2CC2)CC1 [Olaparib] (partner 8 µM)
The method in brief: as §1

Compound in the experiment “AZD1208 + Palbociclib”: N[C@@H]1CCCN(c2c(/C=C3\SC(=O)NC3=O)cccc2-c2ccccc2)C1 [AZD1208] + CC(=O)c1c(C)c2cnc(Nc3ccc(N4CCNCC4)cn3)nc2n(C2CCCC2)c1=O [Palbociclib] (partner 0.5 µM)
Summed up: as §1

With UMC-11, the relative viability with XMD14-99 + Luminespib (first compound 0.08 µM) was determined as 0.98; with XMD14-99 + Luminespib (first compound 0.8 µM), 1.05; with XMD14-99 + Luminespib (first compound 2.53 µM) it was 0.98; with XMD14-99 + Luminespib (first compound 8 µM) it was 0.828; with AZD1208 + Phenformin (first compound 0.08 µM), 0.312; with AZD1208 + Phenformin (first compound 0.253 µM), 0.355. Besides, the relative viability with AZD1208 + Phenformin (first compound 0.8 µM) turned out to be 0.339; with AZD1208 + Phenformin (first compound 2.53 µM), 0.388; with AZD1208 + Phenformin (first compound 8 µM) it was 0.306; in the experiment with AZD1208 + Olaparib (first compound 0.08 µM), 0.27; with AZD1208 + Olaparib (first compound 0.253 µM), 0.374; with AZD1208 + Olaparib (first compound 0.8 µM), 0.333. In addition, the relative viability in the experiment with AZD1208 + Olaparib (first compound 2.53 µM) turned out to be 0.309; in the experiment with AZD1208 + Olaparib (first compound 8 µM), 0.264; with AZD1208 + Palbociclib (first compound 0.08 µM), 0.293; with AZD1208 + Palbociclib (first compound 0.253 µM) it was 0.281; in the experiment with AZD1208 + Palbociclib (first compound 0.8 µM), 0.291; with AZD1208 + Palbociclib (first compound 2.53 µM) it was 0.308. The relative viability with AZD1208 + Palbociclib (first compound 8 µM) was determined as 0.262.
